Test results from the supplement of paper PMC10307832.

What was measured:
Assay in all cases: relative viability (nuclei count vs DMSO), 5 days (fraction); higher = more cells survive
[1] = system: 201T
Procedure, shortened: (§1)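 Cells from lung cancer lines were seeded into 1536-well plates and, one day later, dosed by pin tool. Treatments were either a single drug or a fixed dose of an anchor drug with five library-drug doses (not always all listed) in √10 steps. After 5 days, nuclei were stained in a one-step fixation (final 0.05% Triton X-100, 1% formaldehyde, 1 ug/ml Hoechst) and counted on 4× images, and relative viability is the treated-to-vehicle nuclei ratio, as the median of duplicate plates.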

[2] = system: ABC-1
Procedure, shortened: as §1

[3] = system: COR-L23
Procedure, shortened: as §1

[4] = system: EKVX
Procedure, shortened: as §1

[5] = system: EPLC-272H
Procedure, shortened: as §1

[6] = system: HCC-44
Procedure, shortened: as §1

[7] = system: LOU-NH91
Procedure, shortened: as §1

[8] = system: NCI-H1650
Procedure, shortened: as §1

[9] = system: NCI-H1734
Procedure, shortened: as §1

[10] = system: NCI-H1793
Procedure, shortened: as §1

[11] = system: NCI-H1993
Procedure, shortened: as §1

[12] = system: NCI-H2023
Procedure, shortened: as §1

[13] = system: NCI-H2085
Procedure, shortened: as §1

[14] = system: NCI-H2170
Procedure, shortened: as §1

[15] = system: NCI-H2347
Procedure, shortened: as §1

[16] = system: NCI-H2405
Procedure, shortened: as §1

[17] = system: NCI-H3122
Procedure, shortened: as §1

[18] = system: NCI-H441
Procedure, shortened: as §1

[19] = system: NCI-H520
Procedure, shortened: as §1

[20] = system: NCI-H647
Procedure, shortened: as §1

[21] = system: PC-14
Procedure, shortened: as §1

[22] = system: RERF-LC-KJ
Procedure, shortened: as §1

[23] = system: SW 900
Procedure, shortened: as §1

`COc1cc(N2CCC(C(N)=O)CC2)ccc1Nc1nc(N)c(Cl)c(Nc2ccccc2S(=O)(=O)C(C)C)n1` [HG-5-88-01] + CC(=O)c1c(C)c2cnc(Nc3ccc(N4CCNCC4)cn3)nc2n(C2CCCC2)c1=O [Palbociclib] (partner 0.5 µM) was tested, and the relative viability ([1]; first compound 0.04 µM) was 0.368, the relative viability ([1]; first compound 0.1265 µM) was 0.343 and the relative viability ([1]; first compound 1.265 µM) was 0.347. The relative viability ([1]; first compound 4 µM) was 0.36, the relative viability ([2]; first compound 0.04 µM) was 0.667 and the relative viability ([2]; first compound 0.1265 µM) was 0.664. The relative viability ([2]; first compound 0.4 µM) was 0.764, the relative viability ([2]; first compound 1.265 µM) was 0.583 and the relative viability ([2]; first compound 4 µM) was 0.626. It also gave a relative viability ([3]; first compound 0.04 µM) of 0.383, a relative viability ([3]; first compound 0.1265 µM) of 0.225 and a relative viability ([3]; first compound 0.4 µM) of 0.266. It also gave a relative viability ([3]; first compound 1.265 µM) of 0.235, a relative viability ([3]; first compound 4 µM) of 0.26 and a relative viability ([4]; first compound 0.04 µM) of 0.507. For the same compound, the relative viability ([4]; first compound 0.1265 µM) was 0.425, the relative viability ([4]; first compound 0.4 µM) was 0.389 and the relative viability ([4]; first compound 4 µM) was 0.293. For the same compound, the relative viability ([5]; first compound 0.04 µM) was 0.342, the relative viability ([5]; first compound 0.1265 µM) was 0.342 and the relative viability ([5]; first compound 0.4 µM) was 0.335. The relative viability ([5]; first compound 1.265 µM) was 0.273, the relative viability ([5]; first compound 4 µM) was 0.0966 and the relative viability ([6]; first compound 0.04 µM) was 0.983. For the same compound, the relative viability ([6]; first compound 0.1265 µM) was 0.957, the relative viability ([6]; first compound 0.4 µM) was 0.864 and the relative viability ([6]; first compound 1.265 µM) was 0.954. The relative viability ([6]; first compound 4 µM) was 0.943, the relative viability ([7]; first compound 0.04 µM) was 0.533 and the relative viability ([7]; first compound 0.1265 µM) was 0.491. For the same compound, the relative viability ([7]; first compound 0.4 µM) was 0.585, the relative viability ([7]; first compound 1.265 µM) was 0.509 and the relative viability ([7]; first compound 4 µM) was 0.55. For the same compound, the relative viability ([8]; first compound 0.04 µM) was 0.342, the relative viability ([8]; first compound 0.1265 µM) was 0.391 and the relative viability ([8]; first compound 0.4 µM) was 0.327. It also gave a relative viability ([8]; first compound 1.265 µM) of 0.298, a relative viability ([8]; first compound 4 µM) of 0.223 and a relative viability ([9]; first compound 0.04 µM) of 0.367. The relative viability ([9]; first compound 0.1265 µM) was 0.301, the relative viability ([9]; first compound 0.4 µM) was 0.326 and the relative viability ([9]; first compound 1.265 µM) was 0.33. For the same compound, the relative viability ([9]; first compound 4 µM) was 0.312, the relative viability ([10]; first compound 0.04 µM) was 0.301 and the relative viability ([10]; first compound 0.1265 µM) was 0.309. For the same compound, the relative viability ([10]; first compound 0.4 µM) was 0.299, the relative viability ([10]; first compound 1.265 µM) was 0.24 and the relative viability ([10]; first compound 4 µM) was 0.33. For the same compound, the relative viability ([11]; first compound 0.04 µM) was 0.662, the relative viability ([11]; first compound 0.1265 µM) was 0.69 and the relative viability ([11]; first compound 0.4 µM) was 0.793. It also gave a relative viability ([11]; first compound 4 µM) of 0.564, a relative viability ([12]; first compound 0.04 µM) of 0.343 and a relative viability ([12]; first compound 0.1265 µM) of 0.355. For the same compound, the relative viability ([12]; first compound 0.4 µM) was 0.287, the relative viability ([12]; first compound 1.265 µM) was 0.259 and the relative viability ([12]; first compound 4 µM) was 0.212. The relative viability ([13]; first compound 0.04 µM) was 0.474, the relative viability ([13]; first compound 0.1265 µM) was 0.485 and the relative viability ([13]; first compound 0.4 µM) was 0.458. For the same compound, the relative viability ([13]; first compound 1.265 µM) was 0.465, the relative viability ([13]; first compound 4 µM) was 0.552 and the relative viability ([14]; first compound 0.04 µM) was 0.366. It also gave a relative viability ([14]; first compound 0.1265 µM) of 0.386, a relative viability ([14]; first compound 0.4 µM) of 0.407 and a relative viability ([14]; first compound 1.265 µM) of 0.361. For the same compound, the relative viability ([14]; first compound 4 µM) was 0.457, the relative viability ([15]; first compound 0.04 µM) was 0.439 and the relative viability ([15]; first compound 0.1265 µM) was 0.417. The relative viability ([15]; first compound 0.4 µM) was 0.467, the relative viability ([15]; first compound 1.265 µM) was 0.431 and the relative viability ([15]; first compound 4 µM) was 0.425. The relative viability ([16]; first compound 0.04 µM) was 0.515, the relative viability ([16]; first compound 0.1265 µM) was 0.523 and the relative viability ([16]; first compound 0.4 µM) was 0.528. For the same compound, the relative viability ([16]; first compound 1.265 µM) was 0.348, the relative viability ([16]; first compound 4 µM) was 0.462 and the relative viability ([17]; first compound 0.04 µM) was 0.161. The relative viability ([17]; first compound 0.1265 µM) was 0.138, the relative viability ([17]; first compound 0.4 µM) was 0.11 and the relative viability ([17]; first compound 1.265 µM) was 0.111. It also gave a relative viability ([17]; first compound 4 µM) of 0.0988, a relative viability ([18]; first compound 0.04 µM) of 0.209 and a relative viability ([18]; first compound 0.1265 µM) of 0.202. It also gave a relative viability ([18]; first compound 0.4 µM) of 0.146, a relative viability ([18]; first compound 1.265 µM) of 0.152 and a relative viability ([18]; first compound 4 µM) of 0.172. The relative viability ([19]; first compound 0.04 µM) was 0.206, the relative viability ([19]; first compound 0.1265 µM) was 0.216 and the relative viability ([19]; first compound 0.4 µM) was 0.186. The relative viability ([19]; first compound 1.265 µM) was 0.247, the relative viability ([19]; first compound 4 µM) was 0.232 and the relative viability ([20]; first compound 0.04 µM) was 0.388. For the same compound, the relative viability ([20]; first compound 0.1265 µM) was 0.423, the relative viability ([20]; first compound 1.265 µM) was 0.444 and the relative viability ([20]; first compound 4 µM) was 0.494. For the same compound, the relative viability ([21]; first compound 0.04 µM) was 0.545, the relative viability ([21]; first compound 0.1265 µM) was 0.611 and the relative viability ([21]; first compound 0.4 µM) was 0.464. The relative viability ([21]; first compound 1.265 µM) was 0.221, the relative viability ([21]; first compound 4 µM) was 0.0845 and the relative viability ([22]; first compound 0.04 µM) was 1.07. It also gave a relative viability ([22]; first compound 0.1265 µM) of 1.14, a relative viability ([22]; first compound 0.4 µM) of 1.08 and a relative viability ([22]; first compound 1.265 µM) of 0.908. It also gave a relative viability ([22]; first compound 4 µM) of 0.656, a relative viability ([23]; first compound 0.04 µM) of 0.54 and a relative viability ([23]; first compound 0.1265 µM) of 0.584. The relative viability ([23]; first compound 0.4 µM) was 0.473, the relative viability ([23]; first compound 1.265 µM) was 0.509 and the relative viability ([23]; first compound 4 µM) was 0.567.
